This note sets out measurements from ChEMBL document CHEMBL1125967, “Total synthesis of L-2,2-difluoro-2-deoxy-MYO-inositol 1,4,5-trisphosphate, a potent inhibitor of the enzymes of d-MYO-inositol 1,4,5-trisphosphate metabolism” (Bioorg Med Chem Lett, 1991).

The target of test [1] is Inositol 1,4,5-trisphosphate-gated calcium channel ITPR3 (Homo sapiens, UniProt Q14573). Description: Compound was evaluated for its effective dose to inhibit the calcium release as a measure of affinity for Ins(1,4,5)P3 receptor. The format is functional.
The target in test [2] is Inositol 1,4,5-trisphosphate receptor (Homo sapiens, UniProt Q14571+Q14573+Q14643). Description: Compound was evaluated for its effective dose to inhibit the calcium release as a measure of affinity for Inositol 1,4,5-trisphosphate receptor. The format is functional.
In test [3] the target is T1, Inositol polyphosphate-5-phosphatase A (Homo sapiens, UniProt Q14642).
T1 sequence (Q14642 whole entry): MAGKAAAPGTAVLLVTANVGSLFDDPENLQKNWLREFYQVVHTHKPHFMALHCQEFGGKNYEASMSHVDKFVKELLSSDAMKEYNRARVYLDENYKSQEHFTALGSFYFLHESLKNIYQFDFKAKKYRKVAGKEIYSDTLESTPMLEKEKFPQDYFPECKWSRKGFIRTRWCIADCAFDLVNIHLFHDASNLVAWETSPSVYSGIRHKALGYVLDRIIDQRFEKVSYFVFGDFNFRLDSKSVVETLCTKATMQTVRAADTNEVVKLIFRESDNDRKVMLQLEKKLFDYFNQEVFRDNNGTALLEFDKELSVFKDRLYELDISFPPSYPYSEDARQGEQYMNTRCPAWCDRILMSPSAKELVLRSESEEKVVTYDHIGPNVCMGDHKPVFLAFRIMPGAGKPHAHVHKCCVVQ
Put plainly: Compound was evaluated for binding affinity towards Inositol-1,4,5-trisphosphate 5-phosphatase.

The nature of test [4]: Inhibition of inositol-trisphosphate phosphorylation. Further details: species or system Rattus norvegicus.

Each structure is given as a SMILES string.

Chain of Inositol 1,4,5-trisphosphate-gated calcium channel ITPR3 (Q14573 whole entry): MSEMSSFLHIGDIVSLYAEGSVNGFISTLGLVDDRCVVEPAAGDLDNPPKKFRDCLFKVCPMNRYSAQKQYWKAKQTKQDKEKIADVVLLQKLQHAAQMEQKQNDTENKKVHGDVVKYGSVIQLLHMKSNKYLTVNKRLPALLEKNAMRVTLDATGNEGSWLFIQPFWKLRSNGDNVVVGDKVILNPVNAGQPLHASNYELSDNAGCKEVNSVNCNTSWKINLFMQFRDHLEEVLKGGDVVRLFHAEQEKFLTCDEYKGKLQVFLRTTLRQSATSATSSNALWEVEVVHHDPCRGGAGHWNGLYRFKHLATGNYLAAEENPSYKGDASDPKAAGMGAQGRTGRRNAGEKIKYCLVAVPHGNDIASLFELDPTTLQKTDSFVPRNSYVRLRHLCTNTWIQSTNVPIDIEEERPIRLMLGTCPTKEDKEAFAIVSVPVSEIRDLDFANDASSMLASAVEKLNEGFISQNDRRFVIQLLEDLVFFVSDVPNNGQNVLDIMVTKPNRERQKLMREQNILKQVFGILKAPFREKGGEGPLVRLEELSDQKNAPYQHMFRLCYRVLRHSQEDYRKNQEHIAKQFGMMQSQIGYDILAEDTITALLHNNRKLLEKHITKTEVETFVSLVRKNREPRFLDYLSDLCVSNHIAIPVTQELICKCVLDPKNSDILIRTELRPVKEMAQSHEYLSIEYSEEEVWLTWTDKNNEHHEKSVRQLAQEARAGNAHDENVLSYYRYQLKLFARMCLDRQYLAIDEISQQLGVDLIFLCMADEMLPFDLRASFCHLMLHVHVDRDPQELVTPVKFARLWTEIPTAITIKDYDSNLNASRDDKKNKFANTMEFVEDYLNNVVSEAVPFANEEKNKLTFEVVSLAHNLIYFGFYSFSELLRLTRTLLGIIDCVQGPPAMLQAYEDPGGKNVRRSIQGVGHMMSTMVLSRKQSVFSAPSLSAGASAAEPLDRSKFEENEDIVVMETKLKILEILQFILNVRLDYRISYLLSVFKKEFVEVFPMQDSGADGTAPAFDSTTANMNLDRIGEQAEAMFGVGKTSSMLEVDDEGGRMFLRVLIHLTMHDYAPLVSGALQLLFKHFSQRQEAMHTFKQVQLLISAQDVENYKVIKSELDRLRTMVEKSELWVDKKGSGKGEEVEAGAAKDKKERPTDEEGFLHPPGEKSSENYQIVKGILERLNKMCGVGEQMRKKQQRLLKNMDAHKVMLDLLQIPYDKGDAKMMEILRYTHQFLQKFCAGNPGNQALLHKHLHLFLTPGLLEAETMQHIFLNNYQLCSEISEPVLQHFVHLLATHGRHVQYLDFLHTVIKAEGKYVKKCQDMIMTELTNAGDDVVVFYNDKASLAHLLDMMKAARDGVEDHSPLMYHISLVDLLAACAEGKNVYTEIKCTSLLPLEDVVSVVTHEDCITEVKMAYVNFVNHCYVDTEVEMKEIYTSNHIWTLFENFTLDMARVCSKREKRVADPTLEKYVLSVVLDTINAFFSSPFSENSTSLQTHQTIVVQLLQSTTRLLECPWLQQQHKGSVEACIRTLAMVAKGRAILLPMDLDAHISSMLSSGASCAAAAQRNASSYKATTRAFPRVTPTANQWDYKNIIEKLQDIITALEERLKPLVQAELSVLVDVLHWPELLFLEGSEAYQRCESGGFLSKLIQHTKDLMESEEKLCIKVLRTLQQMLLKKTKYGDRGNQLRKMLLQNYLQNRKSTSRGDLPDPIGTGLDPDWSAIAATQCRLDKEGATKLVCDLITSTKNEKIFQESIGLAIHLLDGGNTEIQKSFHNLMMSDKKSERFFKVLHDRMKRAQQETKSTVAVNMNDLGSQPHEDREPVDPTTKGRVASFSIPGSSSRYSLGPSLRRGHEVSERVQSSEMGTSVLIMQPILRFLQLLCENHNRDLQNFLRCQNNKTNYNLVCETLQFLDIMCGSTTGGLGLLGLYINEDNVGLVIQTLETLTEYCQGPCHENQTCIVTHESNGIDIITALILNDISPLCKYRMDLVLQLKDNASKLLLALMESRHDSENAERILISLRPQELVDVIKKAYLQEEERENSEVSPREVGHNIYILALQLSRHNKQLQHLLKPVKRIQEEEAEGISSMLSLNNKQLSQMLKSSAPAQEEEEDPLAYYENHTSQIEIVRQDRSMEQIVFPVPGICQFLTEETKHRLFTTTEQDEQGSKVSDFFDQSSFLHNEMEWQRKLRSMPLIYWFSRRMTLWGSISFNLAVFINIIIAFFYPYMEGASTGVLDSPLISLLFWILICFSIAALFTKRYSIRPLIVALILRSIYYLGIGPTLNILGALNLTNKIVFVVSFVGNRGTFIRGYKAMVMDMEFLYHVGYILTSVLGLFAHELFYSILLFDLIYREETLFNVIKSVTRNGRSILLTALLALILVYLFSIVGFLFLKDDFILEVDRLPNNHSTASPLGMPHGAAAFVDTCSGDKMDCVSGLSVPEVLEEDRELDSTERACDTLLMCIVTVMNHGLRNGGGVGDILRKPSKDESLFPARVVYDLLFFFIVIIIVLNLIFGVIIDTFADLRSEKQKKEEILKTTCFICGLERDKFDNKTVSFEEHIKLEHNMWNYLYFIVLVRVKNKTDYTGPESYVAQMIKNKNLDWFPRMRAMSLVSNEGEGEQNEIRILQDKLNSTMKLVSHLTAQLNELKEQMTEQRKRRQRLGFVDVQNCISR

By EC50 is commonly meant the concentration at which the effect is half-maximal. In the case of `O=P(O)(O)OC1C(O)C(OP(=O)(O)O)C(F)(F)C(O)C1OP(=O)(O)O` (stereo not given), the EC50 in test [1] worked out at 0.21 µM.
Take `O=P(O)(O)OC1C(O)C(OP(=O)(O)O)C(F)(F)C(O)C1OP(=O)(O)O` (stereo in doubt): the half-maximal effective concentration (EC50) in test [2] was 0.41 µM.
What is called Ki is a measure of affinity in units of concentration, obtained from inhibition or displacement. Turning to `O=P(O)(O)OC1C(O)C(OP(=O)(O)O)C(F)(F)C(O)C1OP(=O)(O)O` (stereo in doubt; L-(4b)), in test [2], the 50% effective concentration (EC50) was found to be 53 µM. In addition, the values for the Ki in test [3] and in test [4] were 26 µM and 11.5 µM, respectively.
